Results from US20200247897A1, “THERAPEUTIC ANTIBODIES BASED ON MUTATED IGG HEXAMERS” (GENMAB B.V., priority 2017, published 2020).

Tested on: panel of 235 cell lines representing 14 tumor lineages
Assay: ATPlite growth inhibition screening of a human cancer cell line panel (Horizon Discovery)
Type: cell-based
Protocol: A 72 hour ATPlite assay (except for DLD-1 and HCT116 cell lines, for which a 120 hour assay was performed) with growth inhibition analysis was performed in two parts at Horizon Discovery Ltd, UK. Samples were tested as four replicates in 384-well assay plates. Serial dilution series of antibody, starting from 0.072 μM final concentration was used for all tested cell lines. For TRAIL (Invitrogen; Cat # PHC1634) serial dilution series starting from 0.01 μM final concentration for the cell lines tested in the first part and 0.17 μM final concentration for the cell lines tested in the second part of the screening was used.

[1] = MCAS, ovary cancer, screening #1
[2] = MCF7, breast cancer, screening #2
[3] = MDA-MB-453, breast cancer (TNBC), screening #2
[4] = MDA-MB-468, breast cancer (TNBC), screening #2
[5] = OVCAR-5, ovary cancer, screening #1
[6] = OVK18, ovary cancer, screening #1
[7] = PK-1, pancreatic cancer, screening #1
[8] = PSN1, pancreatic cancer, screening #1
[9] = Panc 02.13, pancreatic cancer, screening #1
[10] = RERF-LC-KJ, NSCLC, screening #1
[11] = RT4, bladder cancer, screening #2
[12] = RT-112, bladder cancer, screening #2
[13] = SCaBER, bladder cancer, screening #1
[14] = SF295, neural tissue cancer, screening #2
[15] = SK-BR-3, breast cancer, screening #2
[16] = SNU119, ovary cancer, screening #1
[17] = SNU-308, liver cancer, screening #1
[18] = SW780, bladder cancer, screening #1
[19] = T47D, breast cancer, screening #2
[20] = T-24, bladder cancer, screening #2
[21] = TCCSUP, bladder cancer, screening #2
[22] = UM-UC-3, bladder cancer, screening #1

For “TRAIL: natural DR5 ligand, recombinant human TRAIL/APO-2L”, which “Max Inhibition” value (KURAMOCHI, ovary cancer, screening #1) is on record?
Its value is 13.4%.

What about the IC50 (LC1F, NSCLC, screening #1) of the same substance?
Its IC50 is 0.451 nM.

What about the “Max Inhibition” value (LC1F, NSCLC, screening #1) of the same substance?
The value was 74.3%.

What about the IC50 (LC-1sq, NSCLC, screening #1) of the same substance?
The IC50 was 0.781 nM.

What about the “Max Inhibition” value (LC-1sq, NSCLC, screening #1) of the same substance?
The value was 70.1%.

And the “Max Inhibition” value (LCLC-97TM1, NSCLC, screening #1)?
The value was 4.6%.

What about the IC50 (LCLC-103H, NSCLC, screening #1) of the same substance?
Its IC50 is 8.02 nM.

And the “Max Inhibition” value (LCLC-103H, NSCLC, screening #1)?
The value was 54.2%.

What about the “Max Inhibition” value (LK-2, NSCLC, screening #1) of the same substance?
Its value is 5.6%.

What about the IC50 (LOU-NH91, NSCLC, screening #1) of the same substance?
Its IC50 is 5.38 nM.

What about the “Max Inhibition” value (LOU-NH91, NSCLC, screening #1) of the same substance?
The value was 63.0%.

And the “Max Inhibition” value (LU-65, NSCLC, screening #1)?
The value was 32.4%.

What about the “Max Inhibition” value (LU-99, NSCLC, screening #1) of the same substance?
Its value is 6.3%.

And the IC50 (LUDLU-1, NSCLC, screening #1)?
Its IC50 is 0.475 nM.

And the “Max Inhibition” value (LUDLU-1, NSCLC, screening #1)?
The value was 91.1%.

And the “Max Inhibition” value (LXF-289, NSCLC, screening #1)?
Its value is 12.7%.

And the IC50 [1]?
Its IC50 is 56.8 nM.

What about the “Max Inhibition” value [1] of the same substance?
Its value is 48.4%.

And the IC50 [2]?
The IC50 was 0.055 nM.

What about the “Max Inhibition” value [2] of the same substance?
The value was 21.7%.

What about the IC50 (MDA-MB-231, breast cancer (TNBC), screening #1) of the same substance?
The IC50 was 0.11 nM.

And the IC50 (MDA-MB-436, breast cancer (TNBC), screening #2)?
Its IC50 is 0.053 nM.

What about the IC50 [3] of the same substance?
The IC50 was 34.6 nM.

And the “Max Inhibition” value [3]?
Its value is 20.7%.

What about the IC50 [4] of the same substance?
Its IC50 is 0.647 nM.

And the “Max Inhibition” value [4]?
Its value is 89.4%.

And the IC50 (MDST8, colorectal cancer, screening #1)?
Its IC50 is 1.19 nM.

And the “Max Inhibition” value (MEL-HO, melanoma, screening #1)?
The value was 16.7%.

What about the “Max Inhibition” value (MEL-JUSO, melanoma, screening #1) of the same substance?
The value was 7.6%.

And the IC50 (MES-SA, endometrial cancer, screening #1)?
The IC50 was 0.107 nM.

And the IC50 (NCI-H460, NSCLC, screening #1)?
The IC50 was 0.853 nM.

What about the “Max Inhibition” value (NCI-H460, NSCLC, screening #1) of the same substance?
Its value is 86.1%.

And the IC50 (NCI-H820, NSCLC, screening #1)?
Its IC50 is 0.023 nM.

And the “Max Inhibition” value (NCI-H820, NSCLC, screening #1)?
The value was 100.0%.

What about the IC50 (NMC-G1, neural tissue cancer, screening #2) of the same substance?
Its IC50 is 17.6 nM.

And the “Max Inhibition” value (OV7, ovary cancer, screening #1)?
The value was 20.4%.

And the IC50 [5]?
Its IC50 is 1.12 nM.

And the “Max Inhibition” value [5]?
Its value is 70.6%.

What about the “Max Inhibition” value (OVISE, ovary cancer, screening #1) of the same substance?
The value was 4.0%.

What about the IC50 [6] of the same substance?
The IC50 was 0.23 nM.

And the “Max Inhibition” value [6]?
The value was 80.0%.

What about the “Max Inhibition” value (OVTOKO, ovary cancer, screening #1) of the same substance?
The value was 28.0%.

And the IC50 [7]?
Its IC50 is 0.548 nM.

And the “Max Inhibition” value [7]?
The value was 88.3%.

And the IC50 [8]?
Its IC50 is 0.205 nM.

And the “Max Inhibition” value [8]?
Its value is 86.9%.

And the IC50 [9]?
Its IC50 is 1.91 nM.

What about the “Max Inhibition” value [9] of the same substance?
Its value is 60.5%.

And the IC50 [10]?
Its IC50 is 0.633 nM.

What about the “Max Inhibition” value [10] of the same substance?
Its value is 68.9%.

What about the IC50 (RL95-2, endometrial cancer, screening #1) of the same substance?
The IC50 was 0.155 nM.

What about the IC50 [11] of the same substance?
Its IC50 is 0.244 nM.

And the “Max Inhibition” value [11]?
The value was 91.5%.

What about the IC50 [12] of the same substance?
Its IC50 is 0.325 nM.

And the “Max Inhibition” value [12]?
Its value is 50.9%.

And the “Max Inhibition” value (RVH-421, melanoma, screening #1)?
The value was 22.5%.

What about the IC50 [13] of the same substance?
The IC50 was 0.082 nM.

What about the “Max Inhibition” value [13] of the same substance?
Its value is 25.8%.

What about the IC50 (SF126, neural tissue cancer, screening #2) of the same substance?
The IC50 was 0.013 nM.

What about the IC50 [14] of the same substance?
The IC50 was 0.023 nM.

What about the “Max Inhibition” value [14] of the same substance?
Its value is 87.5%.

And the IC50 [15]?
The IC50 was 0.518 nM.

And the “Max Inhibition” value [15]?
Its value is 38.1%.

What about the “Max Inhibition” value (SK-MEL-30, melanoma, screening #1) of the same substance?
The value was 6.1%.

And the IC50 (SNB-75, neural tissue cancer, screening #2)?
The IC50 was 105 nM.

And the IC50 (SNG-II, endometrial cancer, screening #1)?
The IC50 was 1.03 nM.

What about the IC50 (SNU5, gastric cancer, screening #1) of the same substance?
Its IC50 is 0.109 nM.

What about the IC50 [16] of the same substance?
Its IC50 is 0.082 nM.

What about the “Max Inhibition” value [16] of the same substance?
Its value is 83.7%.

And the IC50 (SNU1033, colorectal cancer, screening #1)?
The IC50 was 10.1 nM.

And the IC50 (SNU-175, colorectal cancer, screening #1)?
Its IC50 is 0.122 nM.

And the IC50 [17]?
The IC50 was 0.937 nM.

What about the “Max Inhibition” value [17] of the same substance?
The value was 72.4%.

And the IC50 (SNU-407, colorectal cancer, screening #1)?
Its IC50 is 0.098 nM.

What about the IC50 (SNU-478, liver cancer, screening #1) of the same substance?
Its IC50 is 0.516 nM.

And the IC50 (SNU-601, gastric cancer, screening #1)?
The IC50 was 0.284 nM.

What about the IC50 (SNU-620, gastric cancer, screening #1) of the same substance?
Its IC50 is 0.045 nM.

What about the IC50 (SNU-668, gastric cancer, screening #1) of the same substance?
Its IC50 is 0.041 nM.

And the IC50 (SNU-719, gastric cancer, screening #1)?
The IC50 was 1.13 nM.

What about the IC50 (SNU-869, liver cancer, screening #1) of the same substance?
The IC50 was 2.95 nM.

And the “Max Inhibition” value (SNU-878, liver cancer, screening #1)?
The value was 36.2%.

What about the IC50 (SNU-1197, colorectal cancer, screening #1) of the same substance?
Its IC50 is 0.053 nM.

What about the IC50 (SNU-C2B, colorectal cancer, screening #1) of the same substance?
Its IC50 is 0.713 nM.

And the IC50 (SUM159PT, breast cancer (TNBC), screening #2)?
Its IC50 is 0.033 nM.

And the IC50 (SW480, colorectal cancer, screening #1)?
The IC50 was 2.04 nM.

And the IC50 [18]?
Its IC50 is 0.016 nM.

And the “Max Inhibition” value [18]?
Its value is 97.9%.

And the IC50 (SW837, colorectal cancer, screening #1)?
The IC50 was 0.94 nM.

What about the “Max Inhibition” value (SW1573, NSCLC, screening #1) of the same substance?
Its value is 13.9%.

What about the IC50 (T3M-10, NSCLC, screening #1) of the same substance?
The IC50 was 0.495 nM.

What about the “Max Inhibition” value (T3M-10, NSCLC, screening #1) of the same substance?
The value was 83.7%.

What about the IC50 [19] of the same substance?
Its IC50 is 347 nM.

And the “Max Inhibition” value [19]?
The value was 8.4%.

And the IC50 [20]?
The IC50 was 0.166 nM.

What about the “Max Inhibition” value [20] of the same substance?
The value was 20.5%.

And the IC50 [21]?
Its IC50 is 0.048 nM.

What about the “Max Inhibition” value [21] of the same substance?
Its value is 51.5%.

What about the IC50 (TE-4, head and neck cancer, screening #1) of the same substance?
The IC50 was 0.107 nM.

What about the IC50 (TE-6, head and neck cancer, screening #1) of the same substance?
The IC50 was 3.92 nM.

And the IC50 (TE-9, head and neck cancer, screening #1)?
The IC50 was 0.3 nM.

What about the IC50 (TEN, endometrial cancer, screening #1) of the same substance?
Its IC50 is 1.21 nM.

And the IC50 (U-87 MG, neural tissue cancer, screening #2)?
Its IC50 is 0.053 nM.

And the IC50 [22]?
Its IC50 is 0.005 nM.

And the “Max Inhibition” value [22]?
The value was 99.4%.

And the “Max Inhibition” value (VMRC-LCD, NSCLC, screening #1)?
The value was 19.2%.

And the “Max Inhibition” value (WM-266-4, melanoma, screening #1)?
The value was 42.5%.

And the IC50 (YD-15, head and neck cancer, screening #1)?
The IC50 was 0.114 nM.

What about the IC50 (YH-13, neural tissue cancer, screening #2) of the same substance?
The IC50 was 0.317 nM.

And the “responder cell lines (maximum response threshold 70% inhibition)” value (monotherapy, 72 hour ATPlite assay)?
Its value is “found for all tested tumor indications, except small cell lung cancer (SCLC)”.
